Data taken from US20090118253A1, “COMPOSITIONS AND METHODS FOR TREATING DYSFUNCTIONAL UTERINE BLEEDING” (REPROS THERAPEUTICS INC., priority 2007, published 2009).

What was measured:
[1] = system: progesterone-induced endometrial glandular proliferation in rabbit uterus; assay: anti-McGinty and anti-Clauberg assays in the rabbit uterus; format: in vivo; settings: average of anti-McGinty and anti-Clauberg results relative to CDB-2914 (=1.00)
Source text: Also given in Table 1 are the relative biological activities of the same compounds in the rabbit uterus by the anti-McGinty and anti-Clauberg assays. Compound CDB-2914 (listed at the end of the Table) was used as the control or reference compound (rabbit Biological Activity=1.00) for these experiments because results of experiments using CDB-2914 have been published before (Hild-Petito et al., 1996; Passaro et al., 1997; Reel et al., 1998; Lamer et al., 2000). For the anti-McGinty test, immature female rabbits received a subcutaneous injection of 5 μg estradiol in 10% ethanol/sesame oil daily for 6 consecutive days. On day 7, animals underwent sterile abdominal surgery to ligate a 3-4 cm segment of both uterine horns. The test compound in appropriate solvent was injected intraluminally into the ligated segment of one uterine horn and vehicle alone into the other. A stimulating dose of progesterone (267 μg/day) was administered subcutaneously to each rabbit daily for the next three days to induce endometrial proliferation. All animals were sacrificed at day 10 for removal of the uterus where a segment central to the ligatures was removed and fixed in 10% neutral buffered formalin and submitted for histological processing. Five micron sections stained with hematoxylin and cosin were evaluated microscopically for the degree of endometrial glandular proliferation. The percent inhibition of endometrial proliferation for each rabbit was calculated and the mean of the group of five animals recorded. For the Anti-Clauberg test, immature female rabbits received a subcutaneous injection of 5 μg estradiol in 10% ethanol/sesame oil daily for 6 consecutive days. On day 7, animals received progesterone by subcutaneous injection (160 μg/day) and the experimental compound in appropriate vehicle orally or subcutaneously for five consecutive days. One group of rabbits received progesterone only. Twenty-four hours after the last dose, all animals were sacrificed for removal of the uterus which was cleaned of all fat and connective tissue, weighed to the nearest 0.2 mg and placed in 10% neutral buffered formalin for subsequent histological processing. Five micron sections stained with hematoxylin and eosin were evaluated microscopically for the degree of endometrial glandular proliferation. The percent inhibition of endometrial proliferation at each dose level of the test compound was derived by comparison with progesterone-stimulated animals alone. The data presented in Table 1 (rabbit Biol. Act.) reflects the average of the results obtained for each compound by the anti-McGinty and anti-Clauberg assays relative to CDB-2914.

[2] = system: rabbit progesterone receptor (rbPR) and glucocorticoid receptor (rbGR); assay: Receptor-binding assays, ratio of relative binding affinities rbPR/rbGR; settings: ratio of relative binding affinities (RBA = EC50 of standard/EC50 of test compound x 100) for rbPR and rbGR
Description: Certain antiprogestins were tested in receptor-binding assays for their ability to bind rabbit progesterone receptor (rbPR) and glucocorticoid receptor (rbGR). Briefly, cytosol containing PR or GR were prepared in TEGMD buffer (10 mM Tris, pH 7.2, 1.5 mM EDTA, 0.2 mM sodium molybdate, 10% glycerol, 1 mM DTT) from uterus or thymus, respectively, of estradiol-primed immature rabbits. For PR binding, the cytosol was incubated with 6 nM 1,2-[^3H]progesterone (50.0 Ci/mmole) and competitors were added at concentrations from 2 to 100 nM. For binding to GR, the cytosol was incubated with 6 nM 6,7-[^3H]-dexamethasone (40 Ci/mmol) and test compounds were added at concentrations from 20 to 100 nM. After overnight incubation at 4 C, bound and unbound [^3H] steroids were separated by addition of dextran-coated charcoal and centrifugation at 2100×g for 15 min at 4 C. Supernatants containing the [3H]-steroid receptor complexes were decanted into vials containing 4 ml Optifluor (Packard Instrument Co.), vortexed, equilibrated in a liquid scintillation counter for 30 minutes and then counted for 2 minutes. The EC50 (Effective Concentration) for each standard curve and each of the compound curves was determined by entering the counting data into a four parameter sigmoidal computer program (RiaSmart® Immunoassay Data Reduction Program, Packard Instrument Co., Meriden, Conn.). Relative binding affinity (RBA) for each compound was calculated using the following equation: EC50 of standard/EC50 of test compound×100. The standards for the PR and GR assays were unlabeled progesterone and dexamethasone, respectively. The results of these experiments are summarized in Table 1, as a ratio of the relative binding affinities of each compound for the rbPR and rbGR receptors (rbPR/rbGR).

Molecule | rabbit Biol. Act. [1] | rbPR/rbGR [2]
2 11-(Cyp*-hydroxy)-17α-acetoxy-11β-(4 N,N-dimethylaminophenyl)-19-norpregna-4,9-diene-3,20-dione [CDB-4125] | 1.55 | 1.19
21-BMD-17α-acetoxy-11β-(4 N,N-dimethylaminophenyl)-19-norpregna-4,9-diene-3,20-dione [CDB-4111] | 0.36 | 1.30
21-methoxyacetyl-17α-acetoxy-11β-(4 N,N-dimethylaminophenyl)-19-norpregna-4,9-diene-3,20-dione [CDB-4362] | 1.25 | 4.74
CCC(=O)[C@@]1(OC(C)=O)CCC2C3CCC4=CC(=O)CCC4=C3C(c3ccc(N(C)C)cc3)C[C@@]21C (stereo partly drawn) [CDB-4030, 21-methyl-17α-acetoxy-11β-(4 N,N-dimethylaminophenyl)-19-norpregna-4,9-diene-3,20-dione] | 0.30 | 0.96
CC(=O)O[C@]1(C(=O)CBr)CCC2C3CCC4=CC(=O)CCC4=C3C(c3ccc(N(C)C)cc3)C[C@@]21C (stereo partly drawn) [CDB-4031, 21-bromine-17α-acetoxy-11β-(4 N,N-dimethylaminophenyl)-19-norpregna-4,9-diene-3,20-dione] | 0.70 | 0.69
CC(=O)O[C@]1(C(=O)CF)CCC2C3CCC4=CC(=O)CCC4=C3C(c3ccc(N(C)C)cc3)C[C@@]21C (stereo partly drawn) [CDB-4058, 21-flourine-17α-acetoxy-11β-(4 N,N-dimethylaminophenyl)-19-norpregna-4,9-diene-3,20-dione] | 0.90 | 1.08
CC(=O)O[C@]1(C(=O)C[S+](C)[O-])CCC2C3CCC4=CC(=O)CCC4=C3C(c3ccc(N(C)C)cc3)C[C@@]21C (stereo partly drawn) [CDB-4101, 21-methoxythio-17α-acetoxy-11β-(4 N,N-dimethylaminophenyl)-19-norpregna-4,9-diene-3,20-dione] | 0.65 | 0.61
CC(=O)O[C@]1(C2COC(C)(C)O2)CCC2C3CCC4=CC(=O)CCC4=C3C(c3ccc(N(C)C)cc3)C[C@@]21C (stereo partly drawn) [CDB-4110, 21-acetonide-17α-acetoxy-11β-(4 N,N-dimethylaminophenyl)-19-norpregna-4,9-diene-3,20-dione] | 0.10 | 0.70
CC(=O)O[C@]1(C(=O)CSC(C)=O)CCC2C3CCC4=C(C(=O)c5ccccc5)C(=O)CCC4=C3C(c3ccc(N(C)C)cc3)C[C@@]21C (stereo partly drawn) [CDB-4119, 4-benzoin-21-acetylthio-17α-acetoxy-11β-(4 N,N-dimethylaminophenyl)-19-norpregna-4,9-diene-3,20-dione] | 0.10 | 2.60
CC(=O)O[C@]1(C(=O)CO)CCC2C3CCC4=CC(=O)CCC4=C3C(c3ccc(N(C)C)cc3)C[C@@]21C (stereo partly drawn) [CDB-4152, 21-hydroxy-17α-acetoxy-11β-(4 N,N-dimethylaminophenyl)-19-norpregna-4,9-diene-3,20-dione] | 1.40 | 0.82
CCOCC(=O)[C@@]1(OC(C)=O)CCC2C3CCC4=CC(=O)CCC4=C3C(c3ccc(N(C)C)cc3)C[C@@]21C (stereo partly drawn) [CDB-4167, 21-ethyloxy-17α-acetoxy-11β-(4 N,N-dimethylaminophenyl)-19-norpregna-4,9-diene-3,20-dione] | 1.50 | 1.69
COCC(=O)C1(OC(C)=O)CCC2C3CCC4=CC(=NO)CCC4=C3C(c3ccc(N(C)C)cc3)C[C@@]21C (stereo partly drawn) [CDB-4205, 3-hydroxyamino-2 1-methoxy-17α-acetoxy-11β-(4 N,N-dimethylaminophenyl)-19-norpregna-4,9-diene-3,20-dione] | 1.00 | 1.99
CC(=O)OCC(=O)C1(OC(C)=O)CCC2C3CCC4=CC(=NO)CCC4=C3C(c3ccc(N(C)C)cc3)C[C@@]21C (stereo partly drawn) [CDB-4206, 3-hydroxyamino-21-acetoxy-17α-acetoxy-11β-(4 N,N-dimethylaminophenyl)-19-norpregna-4,9-diene-3,20-dione] | 0.68 | 1.44
CSCC(=O)[C@@]1(OC(C)=O)CCC2C3CCC4=CC(=O)CCC4=C3C(c3ccc(N(C)C)cc3)C[C@@]21C (stereo partly drawn) [CDB-4223, 21-methylthio-17α-acetoxy-11β-(4 N,N-dimethylaminophenyl)-19-norpregna-4,9-diene-3,20-dione] |  | 1.17
CCOCC(=O)C1(OC(C)=O)CCC2C3CCC4=CC(=NO)CCC4=C3C(c3ccc(N(C)C)cc3)C[C@@]21C (stereo partly drawn) [CDB-4226, 3-hydroxyamino-21-ethyloxy-17α-acetoxy-11β-(4 N,N-dimethylaminophenyl)-19-norpregna-4,9-diene-3,20-dione] | 0.54 | 1.51
COCC(=O)[C@@]1(OC(C)=O)CCC2C3CCC4=C(C(=O)c5ccccc5)C(=O)CCC4=C3C(c3ccc(N(C)C)cc3)C[C@@]21C (stereo partly drawn) [CDB-4239, 4-benzoin-21-methoxy-17α-acetoxy-11β-(4 N,N-dimethylaminophenyl)-19-norpregna-4,9-diene-3,20-dione] | 0.60 | 14.80
CCC(=O)OCC(=O)[C@@]1(OC(C)=O)CCC2C3CCC4=CC(=O)CCC4=C3C(c3ccc(N(C)C)cc3)C[C@@]21C (stereo partly drawn) [CDB-4247, 21-propio[1]nyloxy-17α-acetoxy-1 1β-(4 N,N-dimethylaminophenyl)-19-norpregna-4,9-diene-3,20-dione] | 1.70 | 2.06
CC(=O)O[C@]1(C(=O)COC(=O)CN)CCC2C3CCC4=CC(=O)CCC4=C3C(c3ccc(N(C)C)cc3)C[C@@]21C (stereo partly drawn) [CDB-4306, 21-glycinate-17α-acetoxy-11β-(4 N,N-dimethylaminophenyl)-19-norpregna-4,9-diene-3,20-dione] | 0.95 | 5.90
CC(=O)O[C@]1(C(=O)CSC#N)CCC2C3CCC4=CC(=O)CCC4=C3C(c3ccc(N(C)C)cc3)C[C@@]21C (stereo partly drawn) [CDB-4352, 21-cyanothio-17α-acetoxy-11β-(4 N,N-dimethylaminophenyl)-19 norpregna-4,9-diene-3,20-dione] | 0.57 | 4.21
C=COCC(=O)[C@@]1(OC(C)=O)CCC2C3CCC4=CC(=O)CCC4=C3C(c3ccc(N(C)C)cc3)C[C@@]21C (stereo partly drawn) [CDB-4361, 21-vinyl ether-17α-acetoxy-11β-(4 N,N-dimethylaminophenyl)-19-norpregna-4,9-diene-3,20-dione] | 3.03 | 7.20
